Like-named read-outs stand apart in the source and are kept apart here.
Key:
[1] = molecular target: T1, sstr2 receptors on ZR-75-1 cells (Homo sapiens, UniProt P30874); test: saturation binding assay on ZR-75-1 cells; conditions: ZR-75-1 cells in vitro; 1 h at 25 °C; one-site binding model
T1 construct: we used a human breast cancer cell model with endogenous sstr2 expression (ZR-75-1 cells); host or cells: ZR-75-1 cells

[2] = test system: ZR-75-1 tumors; test: biodistribution and PET/CT in ZR-75-1 tumor-bearing NOD scid gamma mice; conditions: mouse, in vivo, iv; for Kidneys uptake / Tumor uptake: female, NOD scid gamma (NOD.Cg-Prkdc^sci Il2rg^tm1Wjl/SzJ)
Source text: (§1) All animal studies were done in compliance with the Canadian Council on Animal Care guidelines and were approved by the Animal Care Committee of University of British Columbia (Vancouver, Canada). Immunodeficient female NOD.Cg-Prkdc ^sci Il2rg ^tm1Wjl/SzJ mice (NOD scid gamma) were obtained from an in-house breeding colony at the Animal Resource Centre of the BC Cancer Agency Research Centre and also from Jackson Laboratory. To sustain the growth of the ER-positive ZR-75-1 cell model, animals were administered a 1.7 mg, 60-day slow-release estrogen pellet from Innovative Research of America (Sarasota, FL) subcutaneously in the dorsal space of the neck. 3–5 days post pellet-implant, 10 million ZR-75-1 cells were re-suspended in a mixture of 1:1 PBS and Matrigel (Corning Inc., Corning, NY) and inoculated subcutaneously on the right shoulder. Tumors were grown for 5–6 weeks, until they reached a size of 7–11 mm in diameter.
(§2) Mice were sedated using 2 mL/min of O2 with 2% isoflurane and injected intravenously (i.v.) with 1–2 MBq of ^68Ga-labeled peptide. Mice were allowed to roam freely for 60 min prior to euthanasia by 2 mL/min of O2 with 4% isoflurane followed by CO2 asphyxiation. Blood was promptly collected by cardiac puncture and weighted. Internal organs were harvested, rinsed in PBS, patted dry and weighed. Organ uptake was measured either in a WIZARD 2480 gamma counter (Perkin Elmer) or Cobra II auto-gamma counter (Packard), both calibrated with standards of known ^68Ga activity. Uptake was normalized to the injected dose and to the respective weight of the organ, and expressed as percent injected dose per gram of tissue (%ID/g).
(§3) Tumor-bearing mice were injected i.v. with 8–9 MBq of ^68Ga-labeled peptide. Static PET images were acquired 55 min post-injection for 10 min using an Inveon microPET/CT scanner (Siemens, Erlangen, Germany) as described previously (Lin et al. [2015]). A baseline CT scan was used for localization and attenuation correction. Mice were promptly euthanized after imaging, and biodistribution studies were undertaken as described above.

[3] = as above; conditions: female, mouse, in vivo, iv, total radioactivity; for tissue uptake at 1 h: NOD scid gamma (NOD.Cg-Prkdc^sci Il2rg^tm1Wjl/SzJ); for tissue to tissue ratio at 1 h: NOD scid gamma (NOD.Cg-Prkdc scid Il2rg tm1Wjl/SzJ)
Source text: as §1, §2, §3

[4] = test system: NET; conditions: human, in vivo; cited from earlier work
[5] = test system: sstr2; design: method as in Reubi et al. [2000]; conditions: ref Reubi et al. [2000]; cited from earlier work
[6] = test system: sstr2; design: method as in Fani et al. [2012b]; conditions: autoradiography approach; ref Fani et al. [2012b]; cited from earlier work

T1 sequence (P30874 whole entry): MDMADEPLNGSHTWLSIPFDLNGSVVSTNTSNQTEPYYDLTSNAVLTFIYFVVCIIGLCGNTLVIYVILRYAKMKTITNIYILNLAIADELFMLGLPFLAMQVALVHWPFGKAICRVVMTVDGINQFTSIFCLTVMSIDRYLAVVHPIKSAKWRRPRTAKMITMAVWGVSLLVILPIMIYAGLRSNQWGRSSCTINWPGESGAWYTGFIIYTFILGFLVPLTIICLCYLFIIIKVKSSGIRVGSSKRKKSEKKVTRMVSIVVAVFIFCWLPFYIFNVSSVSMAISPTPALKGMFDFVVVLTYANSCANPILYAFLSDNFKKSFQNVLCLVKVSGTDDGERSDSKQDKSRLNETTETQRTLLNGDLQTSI

| Structure (SMILES) | Kidneys uptake ([2]; 1 h) [%ID/g] | tissue uptake at 1 h ([3]; Blood uptake) [%ID/g] | tissue uptake at 1 h ([3]; Bone uptake) [%ID/g] | tissue uptake at 1 h ([3]; Fat uptake) [%ID/g] | tissue uptake at 1 h ([3]; Heart uptake) [%ID/g] | tissue uptake at 1 h ([3]; Intestines uptake) [%ID/g] | tissue uptake at 1 h ([3]; Kidneys uptake) [%ID/g] | tissue uptake at 1 h ([3]; Liver uptake) [%ID/g] | tissue uptake at 1 h ([3]; Lungs uptake) [%ID/g] | tissue uptake at 1 h ([3]; Ovaries uptake) [%ID/g] | tissue uptake at 1 h ([3]; Pancreas uptake) [%ID/g] | tissue uptake at 1 h ([3]; Spleen uptake) [%ID/g] | tissue uptake at 1 h ([3]; Stomach uptake) [%ID/g] | tissue uptake at 1 h ([3]; Uterus uptake) [%ID/g] | other results |
| --- | --- | --- | --- | --- | --- | --- | --- | --- | --- | --- | --- | --- | --- | --- | --- |
| C[C@@H](O)[C@@H]1NC(=O)[C@H](CCCCN)NC(=O)[C@@H](Cc2ccc(NC(N)=O)cc2)NC(=O)[C@H](Cc2ccc(NC(=O)[C@@H]3CC(=O)NC(=O)N3)cc2)NC(=O)[C@H](NC(=O)[C@H](Cc2ccc(Cl)cc2)NC(=O)CCC(C(=O)O)N2CCN(CC(=O)O)CCN(CC(=O)O)CC2)CSSC[C@@H](C(=O)N[C@H](Cc2ccc(O)cc2)C(N)=O)NC1=O (stereo partly drawn) [^67/natGa-NODAGA-JR11, metal not drawn] |  |  |  |  |  |  |  |  |  |  |  |  |  |  | Bmax (number of binding sites) [1]: 4.39 ± 0.32 × 10^4 sites/cell |
| C[C@@H](O)[C@H](NC(=O)[C@@H]1CSSC[C@H](NC(=O)[C@@H](Cc2ccccc2)NC(=O)CN2CCN(CC(=O)O)CCN(CC(=O)O)CCN(CC(=O)O)CC2)C(=O)N[C@@H](Cc2ccc(O)cc2)C(=O)N[C@H](Cc2c[nH]c3ccccc23)C(=O)N[C@@H](CCCCN)C(=O)N[C@@H]([C@@H](C)O)C(=O)N1)C(=O)O [^68Ga-DOTATATE, ^68Ga-DOTA-Tyr^3-octreotate, metal not drawn] | 8.45 | 0.35 | 0.25 | 0.28 | 0.67 | 7.35 | 8.5 ± 1.7 | 1.95 | 28.7 | 0.89 | 51.6 | 0.84 | 8.29 | 0.84 | Brain uptake ([2]; 1 h): 0.03 %ID/g |
| C[C@@H](O)[C@@H]1NC(=O)[C@H](CCCCN)NC(=O)[C@@H](Cc2c[nH]c3ccccc23)NC(=O)[C@H](Cc2ccc(O)cc2)NC(=O)[C@@H](NC(=O)[C@@H](Cc2ccccc2)NC(=O)CN2CCN(CC(=O)O)CCN(CC(=O)O)CCN(CC(=O)O)CC2)CSSC[C@@H](C(=O)N[C@H](CO)[C@@H](C)O)NC1=O [^68Ga-DOTATOC, ^68Ga-DOTA-Tyr^3-octreotide, metal not drawn] | 9.27 | 0.45 | 0.2 | 0.18 | 0.3 | 2.39 | 9.3 ± 1.7 | 0.71 | 22.9 | 0.51 | 11 | 0.46 | 2.75 | 0.54 | Tumor uptake ([2]; 1 h): 18.44 %ID/g; tissue uptake at 1 h ([3]; Adrenals uptake): 9.52 %ID/g; tissue uptake at 1 h ([3]; Brain uptake): 0.03 %ID/g; tissue uptake at 1 h ([3]; Muscle uptake): 0.11 %ID/g; tissue uptake at 1 h ([3]; Tumor uptake): 18.4 ± 2.9 %ID/g |
| C[C@@H](O)[C@@H]1NC(=O)[C@H](CCCCN)NC(=O)[C@@H](Cc2ccc(NC(N)=O)cc2)NC(=O)[C@H](Cc2ccc(NC(=O)[C@@H]3CC(=O)NC(=O)N3)cc2)NC(=O)[C@H](NC(=O)[C@H](Cc2ccc(Cl)cc2)NC(=O)CCC(C(=O)O)N2CCN(CC(=O)O)CCN(CC(=O)O)CC2)CSSC[C@@H](C(=O)N[C@H](Cc2ccc(O)cc2)C(N)=O)NC1=O (stereo partly drawn) [^68Ga-NODAGA-JR11, metal not drawn] | 14.12 | 0.8 | 0.26 | 0.23 | 0.46 | 0.9 | 14.1 ± 1.7 | 0.99 | 4.72 | 0.67 | 9.29 | 0.39 | 1.36 | 0.86 | Tumor uptake ([2]; 1 h): 12.21 %ID/g; Tumor to Background Ratio: Blood (tumor-to-blood) [2]: 15.6 ± 2.2; Tumor to Background Ratio: Muscle (tumor-to-muscle) [2]: 45.2 ± 11.6; tissue to tissue ratio at 1 h ([3]; Tumor to Background Ratio: Blood (tumor-to-blood)): 15.6; tissue to tissue ratio at 1 h ([3]; Tumor to Background Ratio: Kidneys): 0.87; tissue to tissue ratio at 1 h ([3]; Tumor to Background Ratio: Muscle (tumor-to-muscle)): 45.1; tissue uptake at 1 h ([3]; Adrenals uptake): 2 %ID/g; tissue uptake at 1 h ([3]; Brain uptake): 0.05 %ID/g; tissue uptake at 1 h ([3]; Muscle uptake): 0.28 %ID/g; tissue uptake at 1 h ([3]; Tumor uptake): 12.2 ± 0.8 %ID/g; higher SUVmax uptake compared to ^68Ga-DOTATOC [4]: ~ 15% |
| C[C@@H](O)[C@@H]1NC(=O)[C@H](CCCCN)NC(=O)[C@@H](Cc2ccc(NC(N)=O)cc2)NC(=O)[C@H](Cc2ccc(NC(=O)[C@@H]3CC(=O)NC(=O)N3)cc2)NC(=O)[C@H](NC(=O)[C@H](Cc2ccc(Cl)cc2)NC(=O)CCC(C(=O)O)N2CCN(CC(=O)O)CCN(CC(=O)O)CC2)CSSC[C@@H](C(=O)N[C@H](Cc2ccc(O)cc2)C(N)=O)NC1=O (stereo partly drawn) [^natGa-NODAGA-JR11, metal not drawn] |  |  |  |  |  |  |  |  |  |  |  |  |  |  | IC50 [6]: 1.2 ± 0.2 nM |
